The record followed here is publication PMC7188728, “A phase I study investigation of metabolism, and disposition of [^14C]-anlotinib after an oral administration in patients with advanced refractory solid tumors” (Cancer Chemotherapy and Pharmacology, 2020).

This series in a line: Metabolite radio-profiling (LC-RAM, LC-MS/MS) of plasma, urine and feces. It counts as in vivo, human. Particulars: pooled plasma 2–96 h, subjects 03–06. The protocol:
An equal volume of 2, 4, 8, 12, 24, and 96 h plasma sample was pooled by time-point across subject 03 ~ 06, to give six pooled plasma samples for metabolite profiling. An appropriate volume (3x, v/v) of acetonitrile was added to a portion of the pooled plasma sample, followed by vortexing ca. 2 min. After storage in a refrigerator for ca. 30 min, the mixture was centrifuged at ca. 10000 g at 4 °C for 10 min. The supernatant was then separated from the PES, which was suspended with water, followed by addition of methanol (2x, v/v) twice. The three extracts were combined and evaporated to dryness under a nitrogen stream by an N-Evap evaporator at room temperature. The residues were reconstituted with an appropriate volume of methanol:water (1:1, v/v) and centrifuged at ca. 10000 g at 4 ℃ for 10 min. The supernatant was subjected to HPLC radio-profiling.
Four pooled human urine samples (subject 03 ~ 06) were pooled from 0 to 432 h based on equal volume ratios from the individual patients across time intervals. In addition, three pooled urine samples (0–48, 48–120 and 360–432 h) (subjects 03–06) were prepared by pooling human urine samples across subjects and time points. Portion of the pooled urine sample was evaporated to a small volume under a nitrogen stream and extracted with methanol (3x, v/v) followed by centrifuged at ca. 10000 g at 4 ℃ for 10 min. The supernatant was reconstituted with an appropriate volume of methanol:water (1:1, v/v) and centrifuged at ca. 10000 g at 4 ℃ for 10 min. The supernatant was subjected to HPLC radio-profiling.
Four human fecal samples (0–432 h) were prepared by pooling feces from individual subjects (Subjects 03–06). In addition, three pooled human fecal samples (0–48, 48–120 and 360–432 h) were prepared by pooling feces samples across subjects and time points. The pooled fecal homogenate was extracted with methanol (3x, v/v) and the mixture was vortexed, and centrifuged at ca. 10000 g at 4 ℃ for 10 min. The supernatant was then separated from the PES, which was suspended with water, followed by addition of methanol twice. The three extracts were combined and evaporated to dryness under a nitrogen stream by an N-Evap evaporator at room temperature. The residues were reconstituted with an appropriate volume of methanol:water (1:1, v/v) and centrifuged at ca. 10000 g at 4 ℃ for 10 min prior to analysis.
HPLC coupled with radioactivity monitor (LC-RAM) was used to isolate and quantitate [^14C] anlotinib and its metabolites. The plasma and fecal extracts as well as urine supernatants were subjected to HPLC separation, fractionation, and eluent collection. The radioactivity in each fraction was monitored by solid scintillation counting using a Packard TopCount® NXT™ Microplate Counter. The radio-profiles were then reconstructed using ARC® Convert software. The peak area of each radioactivity peak/region was integrated using ARC® Evaluation software, and the percent distribution of each peak/region was calculated (%TRA for plasma or %Dose for urine and feces).
Metabolites were characterized and/or identified by LC–MS/MS in conjunction with on-line radioactivity detection. Structures of metabolites were proposed by interpretation of the mass spectral fragmentation pattern, as well as chromatographic behaviors and metabolic pathways.

`COc1cc2c(Oc3ccc4[nH]c(C)cc4c3F)ccnc2cc1O` [M18]: the “Drug-related component in human plasma (radio-profile)” value is recorded as “detected”.
The entry for `COc1cc2c(Oc3ccc4[nH]c(C)cc4c3F)ccnc2cc1OCC1(O)CC1` [M28] is “detected”; for `COc1cc2c(Oc3ccc4[nH]c(C(=O)O)cc4c3F)ccnc2cc1OCC1(N)CC1` [M30] it is “major drug-related component”.
